From ChEMBL document CHEMBL1201862, “PubChem BioAssay data set” (2004)
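Test compounds were applied to cells in 96-well plates for 48 hours at 5 doses. GI50 = concentration required for 50% inhibition of growth.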 Calls of active or inactive are those of the source. Cut-off read from the data, not from the text of the source: active = GI50 up to about 1.1 µM and inactive = higher.

Assays:
Test in all cases: growth of human tumour cells (NCI), 48 h
HOP-62 = system: HOP-62
DLD-1 = system: DLD-1
786-0 = system: 786-0
OVCAR-5 = system: OVCAR-5
KM-20L2 = system: KM-20L2
SNB-75 = system: SNB-75
UO-31 = system: UO-31
SF-268 = system: SF-268
RXF 393 = system: RXF 393
TK-10 = system: TK-10
HCT-116 = system: HCT-116
SNB-19 = system: SNB-19
SK-MEL-5 = system: SK-MEL-5
SW-620 = system: SW-620
SF-295 = system: SF-295
RPMI-8226 = system: RPMI-8226
SK-OV-3 = system: SK-OV-3
M19-MEL = system: M19-MEL
SN12C = system: SN12C
UACC-257 = system: UACC-257
IGROV-1 = system: IGROV-1
SK-MEL-2 = system: SK-MEL-2
SK-MEL-28 = system: SK-MEL-28
M14 = system: M14
MOLT-4 = system: MOLT-4
DMS-114 = system: DMS-114
OVCAR-3 = system: OVCAR-3
CCRF-CEM = system: CCRF-CEM
NCI-H522 = system: NCI-H522
LXFL 529 = system: LXFL 529
NCI-H460 = system: NCI-H460
CAKI-1 = system: CAKI-1
OVCAR-4 = system: OVCAR-4
NCI-H23 = system: NCI-H23
UACC-62 = system: UACC-62
XF498 = system: XF498
ACHN = system: ACHN
SR = system: SR
HOP-92 = system: HOP-92
KM12 = system: KM12
DMS-273 = system: DMS-273
SNB-78 = system: SNB-78
U-251 = system: U-251
HT-29 = system: HT-29
A549 = system: A549
COLO 205 = system: COLO 205
HCT-15 = system: HCT-15
Malme-3M = system: Malme-3M
SF-539 = system: SF-539
HL-60 = system: HL-60
LOX IMVI = system: LOX IMVI
OVCAR-8 = system: OVCAR-8
HOP-18 = system: HOP-18

In the case of CC(=O)OC(C)(C)C1CCC(C)(C(O)COc2ccc(CCNC(=O)c3ccccc3)cc2)O1 (stereo not drawn), the GI50 (HOP-62) is reported as 43.2 µM (inactive), the GI50 (DLD-1) is reported as 31.5 µM (inactive) and the GI50 (786-0) is reported as > 100 µM (inactive). The GI50 (OVCAR-5) was > 100 µM (inactive), the GI50 (KM-20L2) was 73.1 µM (inactive) and the GI50 (SNB-75) was 91.6 µM (inactive). For the same compound, the GI50 (UO-31) was 33.7 µM (inactive), the GI50 (SF-268) was > 100 µM (inactive) and the GI50 (RXF 393) was 6.68 µM (inactive). For the same compound, the GI50 (TK-10) was 63.8 µM (inactive), the GI50 (HCT-116) was 28.8 µM (inactive) and the GI50 (SNB-19) was > 100 µM (inactive). For the same compound, the GI50 (SK-MEL-5) was 11.6 µM (inactive), the GI50 (SW-620) was > 100 µM (inactive) and the GI50 (SF-295) was 37.1 µM (inactive). For the same compound, the GI50 (RPMI-8226) was 20.7 µM (inactive), the GI50 (SK-OV-3) was > 100 µM (inactive) and the GI50 (M19-MEL) was 37.3 µM (inactive). For the same compound, the GI50 (SN12C) was > 100 µM (inactive), the GI50 (UACC-257) was > 100 µM (inactive) and the GI50 (IGROV-1) was > 100 µM (inactive). The GI50 (SK-MEL-2) was > 100 µM (inactive), the GI50 (SK-MEL-28) was 79.8 µM (inactive) and the GI50 (M14) was 28.6 µM (inactive). The GI50 (MOLT-4) was 14.8 µM (inactive), the GI50 (DMS-114) was 12.5 µM (inactive) and the GI50 (OVCAR-3) was 27.6 µM (inactive). The GI50 (CCRF-CEM) was 21.6 µM (inactive), the GI50 (NCI-H522) was 51.2 µM (inactive) and the GI50 (LXFL 529) was 25.1 µM (inactive). For the same compound, the GI50 (NCI-H460) was 61.8 µM (inactive), the GI50 (CAKI-1) was > 100 µM (inactive) and the GI50 (OVCAR-4) was 63.2 µM (inactive). For the same compound, the GI50 (NCI-H23) was > 100 µM (inactive), the GI50 (UACC-62) was 30.8 µM (inactive) and the GI50 (XF498) was 10.5 µM (inactive). For the same compound, the GI50 (ACHN) was 54.1 µM (inactive), the GI50 (SR) was 47.1 µM (inactive) and the GI50 (HOP-92) was > 100 µM (inactive). For the same compound, the GI50 (KM12) was 60.8 µM (inactive), the GI50 (DMS-273) was 33.3 µM (inactive) and the GI50 (SNB-78) was 48.3 µM (inactive). The GI50 (U-251) was 53.3 µM (inactive), the GI50 (HT-29) was > 100 µM (inactive) and the GI50 (A549) was 51.1 µM (inactive). The GI50 (COLO 205) was > 100 µM (inactive), the GI50 (HCT-15) was 46 µM and the GI50 (Malme-3M) was 63.5 µM (inactive). For the same compound, the GI50 (SF-539) was 60.8 µM (inactive), the GI50 (HL-60) was 15.5 µM (inactive) and the GI50 (LOX IMVI) was 31.4 µM (inactive). The GI50 (OVCAR-8) was 47.5 µM (inactive) and the GI50 (HOP-18) was > 100 µM (inactive).
